Test results reported in US6713665B2, “Maize NPR1 promoter and methods of use in plant gene expression” (Pioneer Hi-Bred International, Inc., priority 1999, dated 2004).

Tested on: PR1#81::GUS
Test: Effects of defense elicitors on PR1#81::GUS expression in bombarded GS3 immature embryos
Assay type: cell-based, maize
Conditions: 1 mM salicylic acid or 0.1 mM jasmonic acid, 20-24 h; for PR1#81::GUS expression in the absence of exogenous NPR1: PR1#81::GUS alone; for PR1#81::GUS expression in the presence of exogenous NPR1: co-bombarded with Ubi::NPR1
Method: To evaluate the effects of defense elicitors on PR1#81::GUS expression with or without overexpression of NPR1, three experiments with a total of five replications were performed. GS3 immature embryos were bombarded with either PRI#81::GUS alone or in combination with Ubi::NPR1. Twenty-four hours after bombardment the embryos were treated with either 50 µg/ml of chitosan, 1 mM salicylic acid, or 0.1 mM jasmonic acid diluted in liquid osmotic medium. The embryos were then cultured at 28° C. for twenty to twenty-four hours before the histochemical GUS staining at 37° C. Visual observation of blue spots by histochemical GUS staining was used for interpretation of the transient assay results.

Row | Compound | PR1#81::GUS expression in the absence of exogenous NPR1 | PR1#81::GUS expression in the presence of exogenous NPR1
1 | CC/C=C\C[C@H]1C(=O)CC[C@@H]1CC(=O)O [jasmonic acid] | suppressed | suppressed
2 | O=C(O)c1ccccc1O [salicylic acid] | up regulated | up regulates
